# Laboratory results from publication PMC8132061, “An Insulin‐Inspired Supramolecular Hydrogel for Prevention of Type 1 Diabetes” (Advanced Science, 2021).
# pKd: −log10 of the molar value. Non-standard residues stand in square brackets, D forms with d. Residues, ends and D or L forms follow the SMILES beside them. *: point of attachment. Acetyl(2-naphthyl) = O=C(Cc1ccc2ccccc2c1)*
# Assays:
# [1] = target: human insulin receptor protein (Homo sapiens, UniProt P06213); assay: Microscale thermophoresis (MST) binding to insulin receptor; details: Monolith NT.115, Recombinant Human Insulin R/CD220 (aa 28-944), 37 °C, read-out: dissociation constant (K D) to human insulin receptor protein
# Description: 2‐Cl‐trityl chloride resin (1.1 mmol g^−1) was obtained from Nankai University resin Co., Ltd. Fmoc‐amino acids and o‐benzotriazol‐1‐yl‐N,N,N′,N′‐tetramethyluronium hexafluorophosphate (HBTU) were acquired from GL Biochem (Shanghai). Hydogels were prepared and respective endotoxin levels of formula were tested as previously reported.^[ ^23 , ^24 ^] Ins2_9‐23 peptide (SHLVEALYLVCGERGR; endotoxins <1 EU mg^−1) was supplied by Bankpeptide (Hefei, China). The BD Pharmingen FoxP3 staining kit was from (BD Biosciences, Beijing, China). Aluminum hydroxide was purchased from Sigma‐Aldrich (Shanghai, China). Antibodies used for flow cytometry analysis were purchased from eBioscience (CA, USA) and antibodies used for immunofluorescence staining were obtained from Abcam (Shanghai, China). Cytokine chip microarray was performed by Beijing Genomics Institute (Beijing, China). Recombinant Human Insulin R/CD220 (aa 28‐944) Protein was ordered from R&D Systems (Shanghai, China). Mouse Insulin EZRMI‐13 ELISA kit was from Millipore (Merck, UK). […]
# All peptides in the study were synthesized by standard solid‐phase peptide synthesis (SPPS), and purified by high performance liquid chromatography (HPLC). […] CD spectrum were measured by a BioLogic (MOS‐450) system. […] The release behaviors of peptides was analyzed by liquid chromatograph (LC2020). […]
# [2] = In vivo retention of Cy5.5-labeled hydrogel/formula (fluorescence imaging); details: 50 µL subcutaneous inguinal, 8-weeks old female NOD mice, imaged every 6 h at 640 nm excitation
# Description: 8‐weeks old female NOD mice were subcutaneously injected with a volume of 50 µL Cy5.5‐labeled peptide hydrogels/formulas in inguinal region. In vivo peptide retention was observed every 6 h at 640 nm excitation wavelength via Cri Maestro In‐vivo imaging System (Xenogen, IVIS Lumina II).
# [3] = system: OVA-induced immune responses; details: ref 16a; cited from earlier work
# Text: Poor tolerance induction was also observed from the Nap‐GFFY group (Figure 2A, red dotted line; 60% T1D onset). […] In the present study, when both isoforms of Nap‐GFFY were used, the lack of stability and adjuvant potency of L‐GFFY resulted both in reduced antigenic and adjuvant impact, rendering the Nap‐GFFY formulation less eff ... || Supramolecular peptide hydrogel has, in the past 5 years, been extensively investigated as immune adjuvant to improve efficacy of antigen presentation. By using peptide hydrogel, which functions both as antigen depot and immune adjuvant, it eliminates the likely protein‐induced hypersensitivity in vivo and the need for additional adjuvant^[ ^15 , ^37 ^] […] Because the peptide sequence GFFY is conserved in multiple self‐antigens of autoimmune diabetes, we now have assessed its poten ...
# [4] = Gelation test and TEM of hydrogels/formulas; type: physicochemical; details: after heating-cooling
# Text: We first tested the gelation properties of Nap‐G^dF^dF^dY and controlled peptides (Nap‐GFFY, Nap‐^dF^dF, Nap‐G^dF^dA^dY, and Ac‐G^dF^dF^dY). […] The nanostructures of these hydrogels and solutions were subsequently observed by transmission electron microscopy (TEM). […] The diameter of its nanofiber was about 12 nm. […] Insulin mimicking requires a specific conformation of the self‐assembled peptide Nap‐G^dF^dF^dY for in vivo performance, indicating a secondary structure examination is required. We obtained the circular dichroism (CD) spectrum of peptide within the hydrogel at 37 °C.
# (§1) All peptides in the study were synthesized by standard solid‐phase peptide synthesis (SPPS), and purified by high performance liquid chromatography (HPLC). Hydrogels/formulas were prepared by heating–cooling method. Negative staining technique was used to observe the nanostructures of materials by using TEM (HITACHI HT7700 Exalens). CD spectrum were measured by a BioLogic (MOS‐450) system. Rheology test was carried out on an AR 2000ex system (TA instrument). The release behaviors of peptides was analyzed by liquid chromatograph (LC2020). Microscale thermophoresis and analysis of binding force was performed by using the Monolith NT.115 system (NanoTemper Technologies, Germany). All samples were tested at the temperature of 37 °C.
# [5] = Peptide release from hydrogel/solution; type: physicochemical; details: within 12 h, 37 °C, LC (LC2020)
# Description: as §1
# [6] = system: T1D onset in NOD mice; assay: T1D prevention study, incidence of T1D onset; type: in vivo, female NOD mice; details: 1 mg mL^-1, 50-70 µL s.c. once a week for 5 weeks from 3 weeks of age
# Description: Female NOD mice were inoculated with different hydrogel formulations 3 weeks of age. PBS and aluminum hydroxide+Ins2_9‐23 (Alum+Ins2_9‐23) were used as negative and positive controls, respectively. Random blood glucose (RBG) levels were measured weekly and mice with RBG levels above 11.1 mmol L^−1 for more than 3 consecutive weeks were considered “diabetic” in the present study.
# [7] = system: pancreatic islets; assay: Immunofluorescence of pancreatic islets (morphology, immune cell infiltration), prevention study; type: in vivo, NOD mice
# Description: Female NOD mice (3 weeks of age) were immunized subcutaneously under the front left leg with Nap‐G^dF^dF^dY, Nap‐GFFY, Nap‐G^dF^dA^dY, Nap‐^dF^dF, Ac‐G^dF^dF^dY (1 mg mL^−1, 50–70 µL), and Alum+Ins2_9‐23 (50 µg) and endotoxin‐free PBS once a week for 5 consecutive weeks (from 3‐weeks old to 7‐weeks old) and maintained in specific pathogen free facilities for up to 36 or 52 weeks (n = 3–10 per group). Random plasma glucose level and body weight of all mice were noted weekly from week 8 till the end of experiment with an OneTouch Ultra blood glucose meter (Lifescan Inc., Milpitas, CA, USA). Mice were classified as diabetic if random plasma glucose level exceeded 11.1 mmol L^−1 for 3 consecutive weeks. IPGTT was performed in all treatment groups at week 14, week 20, and week 36. Serum samples were obtained from all mice at the age of week 14, week 20, and week 36 for cytokine chip microarray, which was performed by the Beijing Genomics Institute. Serum insulin level was determined in 10 µL serum samples of each animal using a mouse insulin ELISA kit according to the manufacture's instruction.
# Immunofluorescence staining was performed following procedures that were previously detailed.^[ ^18b,c ^] Pancreas were extracted and paraffin‐embedded before being sectioned (5 µm width) onto microscopic slides. For immunofluorescence staining, antigen retrieval was performed followed by exposure to primary antibodies at 4 ℃ overnight. The pancreas sections were then washed with PBS and staining with secondary antibody for 1–2 h at room temperature and examined under a fluorescence microscope (Olympus BX3‐25ND25, Japan).
# [8] = system: bone marrow derived dendritic cells (BMDCs); set-up: method as in PMID 31244959; details: ref 16b; cited from earlier work
Compound,pKd [1],in vivo retention time (fluorescence signal) [2],in vivo stability vs L-isoform Nap-GFFY [3],gelation property [4],peptide released from gel [5],T1D onset [6] [%],"islet immune cell infiltration ([7]; immunofluorescence, prevention study)","immune cell infiltration per islet over Nap-G^dF^dF^dY ([7]; over Nap-G^dF^dF^dY, p < 0.01) [% over Nap-GdFdFdY]","average % of immune cell infiltration per islet ([7]; per islet, mean ± s.e.m., n = 5-20) [% per islet]",CD40/CD80 expression on BMDCs [8],TNF-α in cell culture supernatant of BMDCs [8]
O=C(Cc1ccc2ccccc2c1)NCC(=O)N[C@H](Cc1ccccc1)C(=O)N[C@H](Cc1ccccc1)C(=O)N[C@H](Cc1ccc(O)cc1)C(=O)O [Nap‐G^dF^dF^dY] ({Acetyl(2-naphthyl)}-G[dF][dF][dY]-OH),4.27,about 36 h,preferentially more stable in vivo,–,–,–,–,–,–,–,–
O=C(Cc1ccc2ccccc2c1)N[C@H](Cc1ccccc1)C(=O)N[C@H](Cc1ccccc1)C(=O)O [Nap‐^dF^dF],–,about 30 h,–,–,–,–,–,–,–,–,–
Nap‐GFFY,–,about 30 h,–,could swiftly form transparent hydrogels,about 40%,60,substantial immune cell infiltration,248 ± 25,38.5 ± 3.8,significant increase expression of CD40/CD80,elevated
